Data published in patent publication US9771359B1, “Substituted oxazole- and thiazole-based carboxamide and urea derivatives as vanilloid receptor ligands II” (MEDIFRON DBT INC., priority 2014, dated 2017).

Molecular target: vanilloid receptor 1 (VR1/TRPV1) (Homo sapiens (Human), UniProt Q8NER1)
Experiment: FLIPR assay, Ca2+ influx in CHO K1 cells transfected with the human VR1 gene
Type: cell-based
Details: for Ki: displacement of capsaicin 100 nM, Ki from IC50 by Cheng-Prusoff equation, read-out: (f) Ki (human) [nM] Cap; for compound-alone effect on Ca2+ influx (agonist / partial agonist): compound 5 μM, % activation compared with control capsaicin 10 μM; for (f) Ki (human) Cap: no effect: inhibition <10% @5 μM
Description: Furthermore, preference may be given to compounds according to the first aspect of the invention that cause a 50% displacement of capsaicin, which is present at a concentration of 100 nM, in a FLIPR assay with CHO K1 cells which were transfected with the human VR1 gene at a concentration of less than 2 000 nM, preferably less than 1 000 nM, particularly preferably less than 300 nM, most particularly preferably less than 100 nM, even more preferably less than 75 nM, additionally preferably less than 50 nM, most preferably less than 10 nM. In the process, the Ca^2+ influx is quantified in the FLIPR assay with the aid of a Ca^2+-sensitive dye (type Fluo-4, Molecular Probes Europe BV, Leiden, the Netherlands) in a fluorescent imaging plate reader (FLIPR, Molecular Devices, Sunnyvale, USA), as described hereinafter.
The FLIPR protocol consists of 2 substance additions during a kinetic measurement. First the compounds to be tested (5 μM) are pipetted onto the cells and the Ca^2+ influx is determined in comparison to the control (capsaicin 10 μM), providing the result as % activation and representing the compound-alone effect (calculation at peak signal related to baseline). […] After 5 min incubation, the Ca^2+ influx is related to an injection of 100 nM of capsaicin and thereby the antagonistic effect of the test compounds detected.
Desensitising agonists and antagonists lead to suppression of the Ca^2+ influx. The % inhibition is calculated compared to the maximum achievable inhibition with 10 μM of capsaicin. Triple analyses (n=3) are carried out and repeated in at least 3 independent experiments.
Starting from the percentage displacement caused by different concentrations of the compounds to be tested of general formula I, IC50 inhibitory concentrations which cause a 50-% displacement of capsaicin were calculated. Ki values for the test substances were obtained by conversion by means of the Cheng-Prusoff equation (Cheng, Prusoff; Biochem. Pharmacol. 22, 3099-3108, 1973).
Chinese hamster ovary cells (CHO K1 cells, European Collection of Cell Cultures (ECACC) United Kingdom) are stably transfected with the VR1 gene. For functional testing, these cells are plated out on poly-D-lysine-coated black 96-well plates having a clear base (BD Biosciences, Heidelberg, Germany) at a density of 25,000 cells/well. The cells are incubated overnight at 37° C. and 5% CO2 in a culture medium (Ham's F12 nutrient mixture, 10% by volume of FCS (foetal calf serum), 18 μg/ml of L-proline). The next day the cells are incubated with Fluo-4 (Fluo-4 2 μM, 0.01% by volume of Pluronic F127, Molecular Probes in HBSS (Hank's buffered saline solution), Gibco Invitrogen GmbH, Karlsruhe, Germany) for 30 min at 37° C. Subsequently, the plates are washed three times with HBSS buffer and after further incubation for 15 min at RT used for Ca^2+ measurement in a FLIPR assay. The Ca^2+-dependent fluorescence is measured before and after the addition of the substances to be tested (λex wavelength=488 nm, λem=540 nm). Quantification is carried out by measuring the highest fluorescence intensity (FC, fluorescence counts) over time.

vanilloid receptor 1 (VR1/TRPV1), sequence (Q8NER1 whole entry): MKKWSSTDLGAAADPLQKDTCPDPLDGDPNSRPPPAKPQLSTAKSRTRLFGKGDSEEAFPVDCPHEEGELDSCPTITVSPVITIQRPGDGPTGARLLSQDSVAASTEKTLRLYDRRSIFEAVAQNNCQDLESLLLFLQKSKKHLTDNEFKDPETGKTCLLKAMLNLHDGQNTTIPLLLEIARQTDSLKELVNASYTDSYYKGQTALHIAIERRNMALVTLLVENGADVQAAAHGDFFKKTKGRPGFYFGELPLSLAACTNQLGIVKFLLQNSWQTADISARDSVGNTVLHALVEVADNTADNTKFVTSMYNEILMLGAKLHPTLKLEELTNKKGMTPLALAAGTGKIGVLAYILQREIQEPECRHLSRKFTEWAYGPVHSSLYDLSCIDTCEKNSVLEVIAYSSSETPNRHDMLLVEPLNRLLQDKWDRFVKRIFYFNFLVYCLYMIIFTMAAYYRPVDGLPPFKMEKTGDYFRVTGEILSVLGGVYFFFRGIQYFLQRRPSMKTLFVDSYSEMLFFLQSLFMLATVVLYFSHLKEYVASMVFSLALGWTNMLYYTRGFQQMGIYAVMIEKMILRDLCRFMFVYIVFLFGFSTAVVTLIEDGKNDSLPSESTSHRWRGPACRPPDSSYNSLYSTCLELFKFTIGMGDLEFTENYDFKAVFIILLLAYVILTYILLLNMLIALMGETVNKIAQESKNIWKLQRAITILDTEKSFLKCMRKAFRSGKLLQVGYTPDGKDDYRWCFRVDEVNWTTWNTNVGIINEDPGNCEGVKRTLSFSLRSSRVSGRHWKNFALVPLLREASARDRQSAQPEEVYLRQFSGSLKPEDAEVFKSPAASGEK

Ki | (f) Ki (human) Cap: no effect | SMILES | compound-alone effect on Ca2+ influx (agonist / partial agonist)
0.4 nM |  | CC(C(=O)NCc1sc(C(F)(F)F)nc1-c1cccc(Cl)c1)c1ccc(NCCO)nc1 (single isomer, unassigned) [EX-15, N-((4-(3-chlorophenyl)-2-(trifluoromethyl)thiazol-5-yl)methyl)-2-(6-((2-hydroxyethyl)amino)pyridin-3-yl)propanamide] | 
41.9 nM |  | CC(C(=O)NCc1sc(C(F)(F)F)nc1-c1cccc(Cl)c1)c1ccc(NCCO)nc1 (single isomer, unassigned) [EX-16, N-((4-(3-chlorophenyl)-2-(trifluoromethyl)thiazol-5-yl)methyl)-2-(6-((2-hydroxyethyl)amino)pyridin-3-yl)propanamide] | 
0.7 nM |  | CC(C(=O)NCc1oc(C(F)(F)F)nc1-c1cccc(Cl)c1)c1ccc(NCCO)nc1 (single isomer, unassigned) [EX-17, N-((4-(3-chlorophenyl)-2-(trifluoromethyl)oxazol-5-yl)methyl)-2-(6-((2-hydroxyethyl)amino)pyridin-3-yl)propanamide] | 
96.7 nM |  | CC(C(=O)NCc1oc(C(F)(F)F)nc1-c1cccc(Cl)c1)c1ccc(NCCO)nc1 (single isomer, unassigned) [EX-18, N-((4-(3-chlorophenyl)-2-(trifluoromethyl)oxazol-5-yl)methyl)-2-(6-((2-hydroxyethyl)amino)pyridin-3-yl)propanamide] | 
1.4 nM |  | CC(C(=O)NCc1sc(C(F)(F)F)nc1-c1cccc(Cl)c1)c1ccc(CCO)c(F)c1 (stereo not drawn) [EX-01, N-((4-(3-chlorophenyl)-2-(trifluoromethyl)thiazol-5-yl)methyl)-2-(3-fluoro-4-(2-hydroxyethyl)phenyl)-propanamide] | 
28.4 nM |  | CC(C(=O)NCc1oc(C(F)(F)F)nc1-c1cccc(Cl)c1)c1ccc(CCO)c(F)c1 (stereo not drawn) [EX-02, N-((4-(3-chlorophenyl)-2-(trifluoromethyl)oxazol-5-yl)methyl)-2-(3-fluoro-4-(2-hydroxyethyl)-phenyl)propanamide] | 
0.6 nM |  | CC(C(=O)NCc1sc(C(C)(C)C)nc1-c1cccc(Cl)c1)c1ccc(CNS(C)(=O)=O)c(F)c1 (stereo not drawn) [EX-03, N-((2-(tert-butyl)-4-(3-chlorophenyl)thiazol-5-yl)methyl)-2-(3-fluoro-4-(methylsulfonamido-methyl)phenyl)propanamide] | 
1 nM |  | Cc1cccc(-c2nc(C(C)(C)C)sc2CNC(=O)C(C)c2ccc(CNS(C)(=O)=O)c(F)c2)c1 (stereo not drawn) [EX-04, N-((2-(tert-butyl)-4-(m-tolyl)thiazol-5-yl)methyl)-2-(3-fluoro-4-(methylsulfonamidomethyl)phenyl)propanamide] | pAG (A Ca^2+ influx of 10%-60% reveals a partial agonist (pAG))
7.5 nM |  | CC(C(=O)NCc1oc(C(F)(F)F)nc1-c1cccc(Cl)c1)c1ccc(CNS(N)(=O)=O)cc1 (stereo not drawn) [EX-05, N-((4-(3-chlorophenyl)-2-(trifluoromethyl)oxazol-5-yl)methyl)-2-(4-((sulfamoylamino)methyl)-phenyl)propanamide] | 
0.7 nM |  | CC(C(=O)NCc1sc(C(F)(F)F)nc1-c1cccc(Cl)c1)c1ccc(CNS(N)(=O)=O)cc1 (stereo not drawn) [EX-06, N-((4-(3-chlorophenyl)-2-(trifluoromethyl)thiazol-5-yl)methyl)-2-(4-((sulfamoylamino)methyl)-phenyl)propanamide] | 
 |  | CC(C(=O)NCc1sc(C(C)(C)C)nc1-c1cccc(Cl)c1)c1ccc(CO)c(F)c1 (stereo not drawn) [EX-07, N-((2-(tert-butyl)-4-(3-chlorophenyl)thiazol-5-yl)methyl)-2-(3-fluoro-4-(hydroxymethyl)phenyl)propanamide] | AG (a Ca^2+ influx of >60% relates to a pure agonist (AG))
 |  | Cc1cccc(-c2nc(C(C)(C)C)sc2CNC(=O)C(C)c2ccc(CO)c(F)c2)c1 (stereo not drawn) [EX-08, N-((2-(tert-butyl)-4-(m-tolyl)thiazol-5-yl)methyl)-2-(3-fluoro-4-(hydroxymethyl)phenyl)propanamide] | AG (a Ca^2+ influx of >60% relates to a pure agonist (AG))
73.8 nM |  | CC(C(=O)NCc1oc(C(F)(F)F)nc1-c1cccc(Cl)c1)c1ccc(C2(O)COC2)cc1 (stereo not drawn) [EX-09, N-((4-(3-chlorophenyl)-2-(trifluoromethyl)oxazol-5-yl)methyl)-2-(4-(3-hydroxyoxetan-3-yl)phenyl)propanamide] | pAG (A Ca^2+ influx of 10%-60% reveals a partial agonist (pAG))
8.8 nM |  | CC(C(=O)NCc1sc(C(F)(F)F)nc1-c1cccc(Cl)c1)c1ccc(C2(O)COC2)cc1 (stereo not drawn) [EX-10, N-((4-(3-chlorophenyl)-2-(trifluoromethyl)thiazol-5-yl)methyl)-2-(4-(3-hydroxyoxetan-3-yl)phenyl)propanamide] | pAG (A Ca^2+ influx of 10%-60% reveals a partial agonist (pAG))
53.1 nM |  | CC(C(=O)NCc1oc(C(F)(F)F)nc1-c1cccc(Cl)c1)c1cnc(CCS(C)(=O)=O)c(F)c1 (stereo not drawn) [EX-11, N-((4-(3-chlorophenyl)-2-(trifluoromethyl)oxazol-5-yl)methyl)-2-(5-fluoro-6-(2-(methylsulfonyl)ethyl)pyridin-3-yl)propanamide] | 
1.1 nM |  | CC(C(=O)NCc1sc(C(F)(F)F)nc1-c1cccc(Cl)c1)c1cnc(CCS(C)(=O)=O)c(F)c1 (stereo not drawn) [EX-12, N-((4-(3-chlorophenyl)-2-(trifluoromethyl)thiazol-5-yl)methyl)-2-(5-fluoro-6-(2-(methylsulfonyl)ethyl)pyridin-3-yl)propanamide] | 
5.2 nM |  | CC(C(=O)NCc1oc(C(F)(F)F)nc1-c1cccc(Cl)c1)c1ccc(NCCO)nc1 (stereo not drawn) [EX-13, N-((4-(3-chlorophenyl)-2-(trifluoromethyl)oxazol-5-yl)methyl)-2-(6-((2-hydroxyethyl)amino)pyridin-3-yl)propanamide] | 
0.7 nM |  | CC(C(=O)NCc1sc(C(F)(F)F)nc1-c1cccc(Cl)c1)c1ccc(NCCO)nc1 (stereo not drawn) [EX-14, N-((4-(3-chlorophenyl)-2-(trifluoromethyl)thiazol-5-yl)methyl)-2-(6-((2-hydroxyethyl)amino)pyridin-3-yl)propanamide] | 
13.8 nM |  | CC(C(=O)NCc1oc(C(F)(F)F)nc1-c1cccc(Cl)c1)c1cnc(CO)c(F)c1 (stereo not drawn) [EX-19, N-((4-(3-chlorophenyl)-2-(trifluoromethyl)oxazol-5-yl)methyl)-2-(5-fluoro-6-(hydroxymethyl)pyridin-3-yl)propanamide] | 
0.3 nM |  | CC(C(=O)NCc1sc(C(F)(F)F)nc1-c1cccc(Cl)c1)c1cnc(CO)c(F)c1 (stereo not drawn) [EX-20, N-((4-(3-chlorophenyl)-2-(trifluoromethyl)thiazol-5-yl)methyl)-2-(5-fluoro-6-(hydroxymethyl)pyridin-3-yl)propanamide] | 
 | ne (ne=no effect (<10% @5 μM)) | CC(C(=O)NCc1oc(C(F)(F)F)nc1-c1cccc(Cl)c1)c1cnc(CO)c(F)c1 (stereo not drawn) [EX-21, N-((4-(3-chlorophenyl)-2-(trifluoromethyl)oxazol-5-yl)methyl)-2-(5-fluoro-6-(hydroxymethyl)pyridin-3-yl)propanamide] | 
 | ne (ne=no effect (<10% @5 μM)) | CC(C(=O)NCc1oc(C(F)(F)F)nc1-c1cccc(Cl)c1)c1cnc(CO)c(F)c1 (stereo not drawn) [EX-22, N-((4-(3-chlorophenyl)-2-(trifluoromethyl)oxazol-5-yl)methyl)-2-(5-fluoro-6-(hydroxymethyl)pyridin-3-yl)propanamide] | 
4.7 nM |  | CC(C(=O)NCc1oc(C(F)(F)F)nc1-c1cccc(Cl)c1)c1ccc(CNS(N)(=O)=O)c(F)c1 (stereo not drawn) [EX-23, N-((4-(3-chlorophenyl)-2-(trifluoromethyl)oxazol-5-yl)methyl)-2-(3-fluoro-4-((sulfamoylamino)methyl)phenyl)propanamide] | 
2.35 nM |  | CC(C(=O)NCc1sc(C(F)(F)F)nc1-c1cccc(Cl)c1)c1ccc(CNS(N)(=O)=O)c(F)c1 (stereo not drawn) [EX-24, N-((4-(3-chlorophenyl)-2-(trifluoromethyl)thiazol-5-yl)methyl)-2-(3-fluoro-4-((sulfamoylamino)methyl)phenyl)propanamide] | 
